From patent publication US20200339582A1, “Atypical Carbapenem Antibiotics with Improved Activity Against Carbapenemase-Producing Acinetobacter baumannii” (priority 2019, published 2020)
In brackets after ≈: the same amount, converted by molar mass. Like-named read-outs stand apart in the source and are kept apart here.

Assays:
Format in all cases: cell-based
[1] = system: Acinetobacter baumannii (carbapenemase produced: None); test: MIC against Acinetobacter baumannii, no carbapenemase produced
[2] = system: resistant Acinetobacter baumannii producing OXA-48; test: MIC against Acinetobacter baumannii producing OXA-48
[3] = system: resistant Acinetobacter baumannii producing KPC-6; test: MIC against Acinetobacter baumannii producing KPC-6
[4] = system: resistant Acinetobacter baumannii producing NDM-1; test: MIC against Acinetobacter baumannii producing NDM-1
[5] = system: resistant Acinetobacter baumannii producing OXA-23; test: MIC against Acinetobacter baumannii producing OXA-23
[6] = system: resistant Acinetobacter baumannii producing VIM-2; test: MIC against Acinetobacter baumannii producing VIM-2
[7] = Acinetobacter baumannii, Table 1, carbapenemase produced: None, read-out: MIC
[8] = Acinetobacter baumannii, Table 2, enzyme produced: None, read-out: MIC
[9] = Table 2, enzyme produced: OXA-48
[10] = Acinetobacter baumannii, Table 2, enzyme produced: NDM-1, read-out: MIC
[11] = Acinetobacter baumannii, Table 1, carbapenemase produced: OXA-23, read-out: MIC
[12] = Table 2, enzyme produced: OXA-23
[13] = Table 1, carbapenemase produced: None
[14] = Table 1, carbapenemase produced: OXA-48
[15] = Table 1, carbapenemase produced: OXA-23
[16] = Acinetobacter baumannii, Table 1, carbapenemase produced: OXA-48, read-out: MIC
[17] = Acinetobacter baumannii, Table 2, enzyme produced: OXA-48, read-out: MIC
[18] = Acinetobacter baumannii, Table 2, enzyme produced: VIM-2, read-out: MIC

| SMILES | MIC [1, 7] | MIC [1, 8] | MIC ([3]; Acinetobacter baumannii) | MIC [4, 10] | MIC [5, 11] | MIC [5, 12] | MIC [1, 13] | MIC [2, 14] | MIC [5, 15] | MIC [2, 16] | MIC [2, 17] | MIC [6, 18] | further results |
| --- | --- | --- | --- | --- | --- | --- | --- | --- | --- | --- | --- | --- | --- |
| C[C@@H](O)[C@H]1C(=O)N2C(C(=O)O)=C(S[C@@H]3CN[C@H](C(=O)Nc4cccc(C(=O)O)c4)C3)[C@H](C)[C@H]12 [Ertapenem, ertapenem] | 2 µg/mL (≈ 4.21 µM) | 4 µg/mL (≈ 8.41 µM) | > 512 µg/mL | 256 µg/mL (≈ 538 µM) | 256 mg/L (≈ 538 µM) | 256 mg/L (≈ 538 µM) |  |  |  |  |  |  | MIC ([2]; Acinetobacter baumannii): 128 µg/mL (≈ 269 µM); MIC [2, 9]: 128 µg/mL (≈ 269 µM); MIC ([6]; Acinetobacter baumannii): > 512 µg/mL |
| C[C@@H](O)[C@H]1C(=O)N2C(C(=O)O)=C(S[C@@H]3CN[C@H](C(=O)N(C)C)C3)CC12C (stereo partly drawn) [Compound 2a, (6S)-6-[(R)-1-Hydroxyethyl]-3-[(3S,5S)-5-(dimethylamino)carbonyl-3-pyrrolidinylthio]-5-methyl-7-oxoazabicyclo[3.2.0]hept-2-ene-2-carboxylate] |  |  |  |  |  |  | 0.5 µg/mL (≈ 1.3 µM) | 1 µg/mL (≈ 2.61 µM) | 4 mg/L (≈ 10.4 µM) |  |  |  |  |
| C[C@@H](O)[C@H]1C(=O)N2C(C(=O)O)=C(S[C@@H]3CN[C@H](C(=O)N(C)C)C3)[C@H](C)[C@H]12 [Meropenem, meropenem] | 0.5 µg/mL (≈ 1.3 µM) | 0.5 µg/mL (≈ 1.3 µM) | 256 µg/mL (≈ 668 µM) |  | 64 mg/L (≈ 167 µM) | 64 mg/L (≈ 167 µM) |  |  |  | 8 µg/mL (≈ 20.9 µM) | 16 µg/mL (≈ 41.7 µM) | 64 µg/mL (≈ 167 µM) | MIC ([4]; Acinetobacter baumannii): 128 µg/mL (≈ 334 µM) |
| C[C@@H](O)[C@H]1C(=O)N2C(C(=O)O)=C(SCCN=CN)C[C@H]12 [Imipenem, imipenem] | 0.25 µg/mL (≈ 0.835 µM) | 0.25 µg/mL (≈ 0.835 µM) |  | 16 µg/mL (≈ 53.4 µM) | 32 mg/L (≈ 107 µM) | 32 mg/L (≈ 107 µM) |  |  |  | 16 µg/mL (≈ 53.4 µM) | 16 µg/mL (≈ 53.4 µM) | 32 µg/mL (≈ 107 µM) |  |
| C[C@@H](O)[C@H]1C(=O)N2C(C(=O)O)=C(S[C@@H]3CN[C@H](CNS(N)(=O)=O)C3)[C@H](C)[C@H]12 [Doripenem, doripenem] | 0.25 µg/mL (≈ 0.595 µM) | 0.25 µg/mL (≈ 0.595 µM) | 128 µg/mL (≈ 304 µM) | 64 µg/mL (≈ 152 µM) | 32 mg/L (≈ 76.1 µM) | 32 mg/L (≈ 76.1 µM) |  |  |  | 16 µg/mL (≈ 38 µM) | 16 µg/mL (≈ 38 µM) | 32 µg/mL (≈ 76.1 µM) |  |
| CN(C)C(=O)[C@@H]1C[C@H](SC2=C(C(=O)O)N3C(=O)[C@H](CO)[C@H]3C2)CN1 [Compound 1] |  |  |  |  |  |  | 0.25 µg/mL (≈ 0.703 µM) | 16 µg/mL (≈ 45 µM) | 8 mg/L (≈ 22.5 µM) |  |  |  |  |
| CCC12CC(S[C@@H]3CN[C@H](C(=O)N(C)C)C3)=C(C(=O)O)N1C(=O)[C@@H]2[C@@H](C)O (stereo partly drawn) [Compound 2b, (6S)-6-[(R)-1-Hydroxyethyl]-3-[(3S,5S)-5-(dimethylamino)carbonyl-3-pyrrolidinylthio]-5-ethyl-7-oxoazabicyclo[3.2.0]hept-2-ene-2-carboxylate] |  |  |  |  |  | 4 mg/L (≈ 10.1 µM) | 2 µg/mL (≈ 5.03 µM) | 4 µg/mL (≈ 10.1 µM) | 4 mg/L (≈ 10.1 µM) |  |  |  | MIC ([1]; Table 2, enzyme produced: None): 2 µg/mL (≈ 5.03 µM); MIC [2, 9]: 4 µg/mL (≈ 10.1 µM); MIC ([3]; Table 2, enzyme produced: KPC-6): 4 µg/mL (≈ 10.1 µM); MIC ([4]; Table 2, enzyme produced: NDM-1): 2 µg/mL (≈ 5.03 µM); MIC ([6]; Table 2, enzyme produced: VIM-2): 4 µg/mL (≈ 10.1 µM) |
| CC1(C)S[C@@H]2[C@H](NC(=O)[C@H](N)c3ccccc3)C(=O)N2[C@H]1C(=O)O [AMP, ampicillin] |  | 32 µg/mL (≈ 91.6 µM) | 4100 µg/mL (≈ 11700 µM) |  |  |  |  |  |  |  |  | > 8190 µg/mL | MIC ([2]; Acinetobacter baumannii): 1020 µg/mL (≈ 2930 µM); MIC ([4]; Acinetobacter baumannii): 1020 µg/mL (≈ 2930 µM); MIC ([5]; Acinetobacter baumannii, Table 2, enzyme produced: OXA-23, read-out: MIC): 8190 mg/L (≈ 23400 µM) |
